# Source: patent US6576430B1, “Detection of ligands by refractive surface methods” (Becton, Dickinson and Company, priority 2000, dated 2003)
# pEC50, pKd: −log10 of the molar value.
# Columns and labels:
# [1] = target: T1, Glucose/Galactose Binding Protein (GGBP) (Escherichia coli, UniProt P0AEE5); assay: SPR (BIACORE) response of saccharides injected over immobilized GGBP surface; details: surface bearing 2000 RU of GGBP; blank subtracted
# T1 construct: made in house
# Protocol: Glucose/Galactose Binding Protein (GGBP) was prepared from osmotic shock lysates and coupled to the CM5 chip surface at 20 μM at pH 4.5 in 10 mM NaOAc using standard NHS/EDC procedures. Ethanolamine (1.0 M, pH 8.0) was used to quench unreacted esters and was also found to be effective at removing non-covalently adsorbed protein from the chip surface. Buffer flow was maintained overnight to remove additional non-covalently bound GGBP from the surface before ligand injections were performed. A surface bearing 2000 RU of GGBP was used for experiments. Ligands were prepared in dH2O at the desired concentrations. Injections were 20 μL at a flow rate of 10 μL/min (2 minute contact time). Report points were collected at 100 seconds post injection. Report points from injections over a blank surface were subtracted. Typical injections over the blank control surface gave minimal (<5 RU) signals, but were subtracted nonetheless. Ligand injections were repeated 3-5 times and the order of injection was reversed periodically. Data points were discarded for data collected during obvious anomolies, such as air bubbles. Remaining data was subjected to Q tests and error represents single standard deviations. A single set of sugar solutions was used for injection over the control and test surfaces. Running buffer was HBS-EP (BIACORE) supplemented with 5 mM CaCl2. Bound GGBP ligands were removed either by injection of 100 mM α-methyl mannoside in 10 mM NaOAc pH 4.5 or by 500-1000 seconds of running buffer wash.
# [2] = target: T2, Bovine brain calmodulin (CaM) (Bos taurus, UniProt P62157); assay: SPR (BIACORE) detection of calcium binding to immobilized calmodulin
# T2 construct: Bovine brain calmodulin (CaM) was obtained from Calbiochem; purchased Calbiochem; host or cells: bovine brain
# Protocol: Bovine brain calmodulin (CaM) was obtained from Calbiochem and immobilized onto carboxymethyl dextran gold surfaces using standard BIACORE EDC/NHS coupling chemistry. HBS-EP was used as an eluent. CaM was injected at 0.5 mg/mL in 10 mM sodium acetate, pH 4.0 (54 minute injection). This procedure immobilized approximately 480 RU of calmodulin. During the immobilizations, the flow rate was 5 μL/min. For some experiments, the BIACORE™ 3000 was used. For others, a BIACORE™ Upgrade was used. In general, injections were run at a flow rate of 5 or 10 μL/min, in HBP-EP buffer. Varying concentrations of CaCl2 in HBS-EP (3.5-50 mM) were injected on the CaM and blank surfaces.
# [3] = target: T3, Tissue transglutaminase (tTG) (Cavia cutleri, UniProt P08587); assay: SPR (BIACORE) detection of calcium binding to immobilized tissue transglutaminase
# T3 construct: purchased Sigma
# T3 sequence (P08587 1-690): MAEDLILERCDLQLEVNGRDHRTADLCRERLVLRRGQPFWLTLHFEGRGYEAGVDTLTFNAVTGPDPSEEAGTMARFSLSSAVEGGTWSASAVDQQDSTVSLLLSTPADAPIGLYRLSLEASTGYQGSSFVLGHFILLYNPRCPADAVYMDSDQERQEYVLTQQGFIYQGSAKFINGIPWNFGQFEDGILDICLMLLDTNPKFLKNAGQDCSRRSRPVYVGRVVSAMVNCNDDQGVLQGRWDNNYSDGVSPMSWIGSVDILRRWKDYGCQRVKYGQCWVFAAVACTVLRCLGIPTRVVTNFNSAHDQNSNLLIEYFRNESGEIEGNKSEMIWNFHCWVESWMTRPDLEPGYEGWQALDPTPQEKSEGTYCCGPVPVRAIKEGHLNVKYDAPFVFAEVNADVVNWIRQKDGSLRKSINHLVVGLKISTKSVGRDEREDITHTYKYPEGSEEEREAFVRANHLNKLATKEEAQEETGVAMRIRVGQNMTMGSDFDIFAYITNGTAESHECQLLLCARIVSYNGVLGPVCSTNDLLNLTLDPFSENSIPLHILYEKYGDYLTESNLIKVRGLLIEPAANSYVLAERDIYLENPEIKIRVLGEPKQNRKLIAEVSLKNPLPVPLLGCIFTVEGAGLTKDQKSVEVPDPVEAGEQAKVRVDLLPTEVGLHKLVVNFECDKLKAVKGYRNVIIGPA
# Protocol: Tissue transglutaminase (tTG) was obtained from Sigma and prepared at 1.3 mg/mL at pH 4.5 in 10 mM NaOAc. A surface bearing 2500 RU of tTG was prepared using standard EDC/NHS coupling chemistry and was used for all experiments. Ethanolamine (1.0 M, pH 8.0) was used to quench unreacted esters. Calcium chloride was prepared in dH2O at the desired concentrations. Injections were 20 μL at a flow rate of 10 μL/min (2 minute contact time). Report points were collected at 100 seconds post injection. Report points from injections over a blank surface were subtracted. Typical injections over the blank control surface gave minimal (<5 RU) signals, but were subtracted nonetheless. Injections were randomized relative to concentration. Data points were discarded for data collected during obvious anomalies, such as air bubbles. Running buffer was HBS-EP (BIACORE) without calcium supplementation. Calcium was removed from transglutaminase by injection of 5 mM EDTA pH 8.0. After EDTA injection the surface was allowed to stabilize for 300 seconds before additional calcium injections.
# tTG = target: T4, tTG (Homo sapiens, UniProt P21980); details: reported value; read-out: reported Kd of calcium for the protein; cited from earlier work
# T4 sequence (P21980 1-687): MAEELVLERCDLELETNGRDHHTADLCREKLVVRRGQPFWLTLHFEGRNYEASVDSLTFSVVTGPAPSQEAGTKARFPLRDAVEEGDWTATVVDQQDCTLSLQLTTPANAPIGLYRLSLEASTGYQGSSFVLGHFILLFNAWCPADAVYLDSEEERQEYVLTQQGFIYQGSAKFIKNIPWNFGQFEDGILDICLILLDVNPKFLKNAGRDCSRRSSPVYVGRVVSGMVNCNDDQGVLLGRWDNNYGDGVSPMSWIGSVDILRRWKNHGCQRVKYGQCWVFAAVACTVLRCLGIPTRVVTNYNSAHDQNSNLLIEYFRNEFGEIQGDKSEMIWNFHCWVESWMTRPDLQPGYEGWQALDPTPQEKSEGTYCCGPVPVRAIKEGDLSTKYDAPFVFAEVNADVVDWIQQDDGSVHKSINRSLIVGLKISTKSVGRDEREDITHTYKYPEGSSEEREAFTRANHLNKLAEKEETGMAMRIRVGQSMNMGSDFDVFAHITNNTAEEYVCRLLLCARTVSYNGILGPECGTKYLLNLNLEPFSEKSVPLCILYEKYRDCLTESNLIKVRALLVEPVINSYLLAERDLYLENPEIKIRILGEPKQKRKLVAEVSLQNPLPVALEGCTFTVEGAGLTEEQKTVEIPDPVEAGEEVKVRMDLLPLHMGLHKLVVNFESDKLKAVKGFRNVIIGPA
# MBP = target: T5, MBP (Escherichia coli, UniProt P0AEX9); assay: SPR (BIACORE) detection of maltose binding to immobilized MBP
# T5 construct: made in house
# Protocol: MBP was prepared from osmotic shock lysates and coupled to a CM5 (carboxymethyl dextran) chip (BIACORE) using standard EDC/NHS procedures performed with reagents from the BIACORE EDC/NHS coupling kit. MBP was 10 μM at pH 4.5 in 10 mM NaOAc. Hepes Buffered Saline-EP (HBS-EP: 0.01 M HEPES pH 7.4, 0.15 M NaCl, 3 mM EDTA, 0.005% surfactant P20; BIACORE™ AB) was used as an eluent (O'Shannessy et al., 1992) supplemented with 5 mM CaCl2. Ethanolamine (1.0 M, pH 8.0) was used to quench unreacted esters and was also found to be effective at removing non-covalently adsorbed protein from the chip surface. […] Report points were collected at 100 seconds post injection. Report points from injections over a blank surface were subtracted. Data points were discarded for data collected during obvious anomalies, such as air bubbles. Running buffer was HBS-EPA (BIACORE) supplemented with 5 mM CaCl2.
# After regeneration the surface was allowed to stabilize for 300 seconds before additional ligand injections.
# T1 sequence (P0AEE5 24-332 limits assumed): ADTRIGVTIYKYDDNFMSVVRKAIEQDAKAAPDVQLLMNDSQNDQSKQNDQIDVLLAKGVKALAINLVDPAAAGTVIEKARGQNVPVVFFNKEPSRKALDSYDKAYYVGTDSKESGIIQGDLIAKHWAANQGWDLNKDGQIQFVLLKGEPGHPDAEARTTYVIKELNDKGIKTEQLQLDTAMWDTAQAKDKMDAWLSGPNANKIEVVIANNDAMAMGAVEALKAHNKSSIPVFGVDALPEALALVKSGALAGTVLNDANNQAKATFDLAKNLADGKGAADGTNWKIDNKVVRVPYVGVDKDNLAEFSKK
molecule,measurement,setting,value
maltotriose,response in relative RU on injection over the GGBP surface,[1],negligible or slightly positive increase in relative RU
cyclodextrins,response in relative RU on injection over the GGBP surface,[1],negligible or slightly positive increase in relative RU
OC[C@H]1O[C@H](O[C@H]2[C@H](O)[C@@H](O)[C@@H](O[C@H]3[C@H](O)[C@@H](O)[C@@H](O[C@H]4[C@H](O)[C@@H](O)C(O)O[C@@H]4CO)O[C@@H]3CO)O[C@@H]2CO)[C@H](O)[C@@H](O)[C@@H]1O (stereo partly drawn) [maltotetraose],response in relative RU on injection over the GGBP surface,[1],negligible or slightly positive increase in relative RU
"[Ca+2].[Cl-].[Cl-] [calcium, Calcium chloride]",signal over the CaM surface during injection,"[2]; 50 mM CaCl2, blank surface gave 1502 RU",1350 RU
same,change in SPR signal on CaM surface relative to blank surface,"[2]; 3.5-50 mM CaCl2 in HBS-EP, approximately 480 RU of calmodulin",reduction in signal
same,change in SPR response on calcium binding to tTG,"[3]; SPR, immobilized tTG",positive change in response
same,pEC50,"[3]; surface bearing 2500 RU of tTG, running buffer without calcium, read-out: half-maximal response of tTG",3.30
same,pKd,tTG,~3.00
OC[C@H]1O[C@H](O[C@H]2[C@H](O)[C@@H](O)C(O)O[C@@H]2CO)[C@H](O)[C@@H](O)[C@@H]1O (mixture of isomers) [maltose],change in RUs on injection over the MBP surface,MBP,reproducible net decrease in RUs
